What was measured:
patients with RRMS [1] = assay: Post hoc analysis of pooled ALLEGRO and BRAVO trials by baseline EDSS subgroup; format: in vivo, human; details: for Annualized Relapse Rate, Ratio: LAQ 0.6 mg vs PBO
Excerpt: The observed effect of LAQ on Confirmed Disability Progression (CDP) is disproportionately larger than would be predicted by the observed LAQ effect on relapse rate reduction.
ALELGRO and BRAVO trials described above enrolled ambulatory patients with RRMS, aged 18-55 years, with EDSS scores ≦5.5. Patients included in the study had • 1. ≧1 relapse in the previous year, or • 2. 2 relapses in the previous 2 years, or • 3. 1 relapse in the previous 1-2 years and ≧1 GdE lesion in the previous year.
Patients were randomized 1:1 to LAQ 0.6 mg or PBO in the ALLEGRO study; in BRAVO patients were randomized 1:1:1 LAQ 0.6 or PBO or weekly interferon β 1a 30 μg.
This post hoc analysis include patients randomized to LAQ 0.6 mg or PBO only. Endpoints include ARR, time to CDP (defined as an increase from baseline in EDSS score of ≧1 point if baseline EDSS is ≦5, or of ≧0.5 point if baseline EDSS is >5), sustained for 3 or 6 months; and MSFC components including the Timed 25-Foot Walk (T25FW) test.
LAQ vs. […] Adjusted mean z-score differences and 95% CIs were evaluated by ANCOVA.
MRI endpoints included brain atrophy measured percent brain volume change (PBVC), and cumulative numbers of gadolinium-enhancing (GdE) and new T2 lesions at months 12 and 24.

[2] = tested on: subjects with relapsing remitting multiple sclerosis (RRMS); assay: ALLEGRO Phase III trial: patient-reported fatigue and health status (MFIS, SF-36, EQ5D); format: in vivo, human; details: over 24 months
Description: The following assessments were performed at specified time points: • 1. Vital signs were measured at each study visit. • 2. A physical examination is performed at months −1 (screening), 0 (baseline) 1, 3, 6, 12, 18 and 24 (termination/early discontinuation core study). In case of the 6 months extended study, additional examination was performed at month 30 (termination/early discontinuation of extended study). • 3. The following safety clinical laboratory tests were performed: • a. Complete blood count (CBC) with differential—at all scheduled visits. A reticulocyte count was added to the CBC at months 0 (baseline) and 24/30 (termination/early discontinuation). • b. […] Adverse Events (AEs) are monitored throughout the study. • 9. Concomitant medications are monitored throughout the study. • 10. […] MS functional Composite (MSFC) was assessed at months −1 (screening) (three practices for training purposes only), at month 0 (baseline), 6, 12, 18 and 24 (termination/early discontinuation). […] Subject-reported fatigue was assessed by the Modified Fatigue Impact Scale (MFIS) at months 0, 6, 12, 18, and 24 (termination/early discontinuation). […] The general health status was assessed by the EuroQoL (EQ5D) questionnaire at month 0 (baseline) and month 24 (termination/early discontinuation of the study). […]

patients with RRMS [3] = details: pooled ALLEGRO and BRAVO, all patients, 0.6 mg QD vs PBO; cited from earlier work
[4] = tested on: subjects with relapsing remitting multiple sclerosis (RRMS); assay: ALLEGRO Phase III trial: safety and tolerability; format: in vivo, human
Description: The following assessments were performed at specified time points: • 1. Vital signs were measured at each study visit. • 2. A physical examination is performed at months −1 (screening), 0 (baseline) 1, 3, 6, 12, 18 and 24 (termination/early discontinuation core study). In case of the 6 months extended study, additional examination was performed at month 30 (termination/early discontinuation of extended study). • 3. The following safety clinical laboratory tests were performed: • a. Complete blood count (CBC) with differential—at all scheduled visits. A reticulocyte count was added to the CBC at months 0 (baseline) and 24/30 (termination/early discontinuation). • b. Serum chemistry (including electrolytes, liver enzymes, direct and total bilirubin and pancreatic amylase and CPK), and urinalysis—at all scheduled visits. • c. A rapid urine β-hCG test was performed in women of child-bearing potential at baseline (month 0) and at each scheduled study visit thereafter (at site). • d. β-hCG in women of child-bearing potential was performed at all scheduled visits. • e. Starting after visit Month 3 a rapid urine β-hCG test was performed in women of child-bearing potential every 28 (±2) days. The subject was contacted by telephone within 72 hours after the test was scheduled to be performed and asked specific questions regarding the test. In case of suspected pregnancy (positive urine β-hCG test result), the caller made sure that the study drug has been discontinued and the subject was instructed to arrive at the site as soon as possible with all study drugs. • 4. Markers of inflammation (serum conventional C-reactive protein and fibrinogen)—at screening, baseline and all scheduled visits thereafter. • 5. During the first 3 months periodical phone calls were placed by the site personnel every two weeks. […] ECG was performed at months −1 (screening; additional recording, up to 30 minutes apart is performed if QTc is […] 450 msec), (baseline; three recordings, 15 minutes apart), 1, 2, 3, 6, 12, 18 and 24 (termination/early discontinuation). In case of the 6 months extended study, ECG is performed at month 30 (termination/early discontinuation of the extended study). • 7. Chest X-ray is performed at months −1 (screening), (if not performed within 7 months prior to the screening visit). • 8. Adverse Events (AEs) are monitored throughout the study. • 9. Concomitant medications are monitored throughout the study. • 10. Neurological evaluations, including Expanded Disability Status Scale (EDSS), 25 foot walk test/Ambulation Index (AI), Functional systems (FS) are performed at months −1 (screening), 0 (baseline) and every 3 months during the study and the extended study period. • 11. MS functional Composite (MSFC) was assessed at months −1 (screening) (three practices for training purposes only), at month 0 (baseline), 6, 12, 18 and 24 (termination/early discontinuation). In case of the 6 months extended study, the last MSFC was performed at months 30 (termination/early discontinuation of the extended study). • 12. Subject-reported fatigue was assessed by the Modified Fatigue Impact Scale (MFIS) at months 0, 6, 12, 18, and 24 (termination/early discontinuation). In case of the 6 months extended study, additional MFIS was performed at month 30 (termination/early discontinuation of the extended study). • 13. The general health status was assessed by the EuroQoL (EQ5D) questionnaire at month 0 (baseline) and month 24 (termination/early discontinuation of the study). In case of the 6 months extended study, the last EuroQoL (EQ5D) was performed at month 30 (termination/early discontinuation of the extended study) instead of month 24. • 14. The general health status was assessed by the Short-Form general health survey (SF-36) subject-reported questionnaire at month 0 (baseline) and every 6 months thereafter, until termination/early discontinuation. • 15. […]

relapsing MS = details: cited from earlier work

CCN(C(=O)c1c(O)c2c(Cl)cccc2n(C)c1=O)c1ccccc1 [Laquinimod, laquinimod]
T25FW time increase after 24 months (adjusted mean) (patients with RRMS [1]; baseline EDSS >3): 1.9 s | 9HPT Change from Baseline to Month 24, Adj. Mean Diff. (patients with RRMS [1]; baseline EDSS >3.0): −1.590 | Brain Atrophy as defined by PBVC, adjusted mean difference (patients with RRMS [1]; baseline EDSS >3.0): 0.39 | Cumulative GdE T1 Lesions at Months 12 and 24, Rate Ratio (patients with RRMS [1]; baseline EDSS >3.0): 0.83 | Cumulative New/Enlarging T2 Lesions at Months 12 and 24, Rate Ratio (patients with RRMS [1]; baseline EDSS >3.0): 0.75 | Disability as Assessed by MSFC z-Score at Month 24, adjusted mean difference (patients with RRMS [1]; baseline EDSS >3.0): 0.25 | PASAT Change from Baseline to Month 24, Adj. Mean Diff. (patients with RRMS [1]; baseline EDSS >3.0): 0.586 | Time to 3-month CDP, Hazard Ratio (patients with RRMS [1]; baseline EDSS >3.0): 0.60 | Time to 6-month CDP, Hazard Ratio (patients with RRMS [1]; baseline EDSS >3.0): 0.47 | Reduction in 6-month CDP (patients with RRMS [1]; baseline EDSS >3 (worsening MS), vs PBO): 53% | Reduction of 3-month CDP (patients with RRMS [1]; baseline EDSS >3, vs PBO): 40% | Reduction of ARR (patients with RRMS [1]; baseline EDSS >3, vs PBO): 25% | Improvement / treatment effect size on the T25FW component (patients with RRMS [1]; baseline EDSS >3, vs PBO, 24 months): 59% | Annualized Relapse Rate, Ratio (patients with RRMS [1]; baseline EDSS >3.0): 0.75 | T25FW Change from Baseline to Month 24, Adj. Mean Diff. (patients with RRMS [1]; baseline EDSS >3.0, listed as LAQ): -2.79 s | T25FW treatment effect among subjects who experienced CDP (patients with RRMS [1]; baseline EDSS >3 with CDP, vs PBO): 8.6 s | Treatment differences in T25FW (patients with RRMS [1]; baseline EDSS ≦3): No treatment differences | 9HPT Change from Baseline to Month 24, Adj. Mean Diff. (patients with RRMS [1]; baseline EDSS ≦3.0): −1.108 | Brain Atrophy as defined by PBVC, adjusted mean difference (patients with RRMS [1]; baseline EDSS ≦3.0): 0.34 | Cumulative GdE T1 Lesions at Months 12 and 24, Rate Ratio (patients with RRMS [1]; baseline EDSS ≦3.0): 0.66 | Cumulative New/Enlarging T2 Lesions at Months 12 and 24, Rate Ratio (patients with RRMS [1]; baseline EDSS ≦3.0): 0.77 | Disability as Assessed by MSFC z-Score at Month 24, adjusted mean difference (patients with RRMS [1]; baseline EDSS ≦3.0): −0.02 | PASAT Change from Baseline to Month 24, Adj. Mean Diff. (patients with RRMS [1]; baseline EDSS ≦3.0): 0.302 | T25FW Change from Baseline to Month 24, Adj. Mean Diff. (patients with RRMS [1]; baseline EDSS ≦3.0): 0.055 s | Time to 3-month CDP, Hazard Ratio (patients with RRMS [1]; baseline EDSS ≦3.0): 0.69 | Time to 6-month CDP, Hazard Ratio (patients with RRMS [1]; baseline EDSS ≦3.0): 0.60 | Annualized Relapse Rate, Ratio (patients with RRMS [1]; baseline EDSS ≦3.0): 0.80 | SF-36 physical component summary (PCS) course [2]: remained stable | Reduction in 6-month confirmed disability progression (CDP) (patients with RRMS [3]): 46% | Deaths ([4]; 0.6 mg daily, 24 months): No deaths | ALT elevations ≧5×ULN, patients ([4]; human, in vivo, 24 months): 8 | Abdominal pain, % of patients ([4]; human, in vivo, 24 months): 5.8% | Adverse events, number ([4]; human, in vivo, 24 months): 3309 | Appendicitis ([4]; human, in vivo, 24 months): 5 cases | Back pain, % of patients ([4]; human, in vivo, 24 months): 16.4% | Cough, % of patients ([4]; human, in vivo, 24 months): 7.5% | Neoplasms ([4]; human, in vivo, 24 months): 8 cases | Patients reporting 1 or more adverse events ([4]; human, in vivo, 24 months): 87% | Serious adverse events (SAEs) reported, total ([4]; human, in vivo, 24 months): 122 | Shift to ALT ≧3×ULN and <5×ULN, % of patients ([4]; human, in vivo, 24 months): 4.9% | Study discontinuation associated with these adverse events (abdominal pain, back pain, cough) ([4]; human, in vivo, 24 months): 3% | Treatment discontinuation due to ALT≧3 and <5×ULN, patients ([4]; human, in vivo, 24 months): 7 | Liver failure ([4]; in vivo): no cases of liver failure | Development of active MRI lesions (relapsing MS): reduce development of active MRI lesions

Source: patent US9662322B2 (TEVA PHARMACEUTICAL INDUSTRIES, LTD., priority 2014, dated 2017)
